Measurements: publication PMC12584836, “Rubus caesius leaves and stems in antiaging skin care products: antityrosinase, anticollagenase, antimicrobial activity, and transdermal distribution of main phenolic acids” (Pharmaceutical Biology, 2025)
Marks after values point to notes of the source that are not given here.

Assays:
[1] = ABTS radical scavenging assay; type: biochemical
Protocol: (§1) Water and ethanol extracts from Rubus caesius leaves and stems were freshly prepared by dissolving the dry extract in water. The samples were tested at concentrations ranging from 1 to 1000 µg/mL. Ascorbic acid was used as the reference standard in both assays. All measurements were performed using a 96-well microplate reader (Epoch, BioTek System, Winooski, VT, USA). IC50 values for each extract were calculated using the GraphPad Prism 9 software (version 9.0.0, GraphPad Software, San Diego, CA, USA). Each test was performed in triplicate and repeated three times (n = 9).
The antioxidant activity of the Rubus caesius extracts was determined using ABTS radical scavenging method as described by Thring et al. ([2009]), with minor modifications according to Hering et al. ([2025]). The reaction mixture containing extracts or standard were incubated in the dark for 20 min at 30 °C. After incubation, absorbance was measured at 750 nm. The negative control sample consisted of the reaction mixture and water instead of extract or standard.

[2] = Molybdenum reduction (phosphomolybdenum) assay; type: biochemical
Protocol: as §1
The total reducing power of water and ethanol extracts from Rubus caesius was estimated according to the phosphomolybdenum method described by Prieto et al. ([1999]), with modifications by Hering et al. ([2025]). The samples (extract or standard) were mixed with the reagent solution and incubated at 90 °C for 90 min. After cooling, 250 µL of each reaction mixture was transferred to a 96-well microplate reader (Epoch, BioTek System, Winooski, VT, USA), and absorbance was measured at 700 nm. The negative control consisted of the reaction mixture and water.

[3] = target: Collagenase from Clostridium histolyticum; assay: Collagenase inhibition assay (FALGPA substrate); type: biochemical
Protocol: Preparation of the extracts and calculation of IC50 values were carried out as described in the Antioxidant tests section. The effect of Rubus caesius extracts on collagenase and tyrosinase activity was estimated using the spectrophotometric method in a 96-well microplate reader (Epoch, BioTek System, Winooski, VT, USA).
The addition of the substrate started the reaction. Changes in absorbance were monitored every 20 s for a total of 20 min. The blank sample contained buffer, substrate, and the appropriate concentration of extract or standard. The negative control sample contained water instead of extract or standard. All tests were performed in triplicate and repeated three times (n = 9).
The effect of Rubus caesius extracts on collagenase activity was assessed based on the method described by Thring et al. ([2009]), with modifications introduced by Hering et al. ([2023]). FALGPA was used as the substrate, and oleanolic acid served as the positive control. Reaction mixtures containing the extract (0–400 µg/mL) were pre-incubated for 15 min. The reaction was initiated by the addition of 0.8 mM FALGPA, and absorbance was continuously measured at 335 nm. The reaction buffer was composed of tricine (50 mM, pH 7.5) with 400 mM NaCl and 10 mM CaCl2.

[4] = Skin permeation from hydrogels in Franz diffusion cells; type: in vitro ADME; conditions: porcine skin
Protocol: Permeation experiments were conducted using Franz diffusion cells (Phoenix DB-6, ABL&E-JASCO, Wien, Austria), with a donor chamber area of 1 cm^2 and 10 mL acceptor chamber filled with phosphate-buffered saline (PBS, pH 7.4). The system was maintained at 37.0 ± 0.5 °C, and the acceptor solutions were continuously stirred.
Skin samples were wrapped in aluminum foil, frozen at −20 °C for no longer than three months. […] Skin impedance was measured by immersing the probe tips in the donor and acceptor chambers filled with PBS.
One gram of each hydrogel was applied to the donor chamber. All chambers were sealed with plastic stoppers to minimize evaporation. […] Phenolic acid concentrations were determined by HPLC.
J-shaped profiles and the following equations were used: (1) A=JSS(t−LT) where A is the cumulative amount permeated (μg·cm^−2) of tested phenolic acids permeating into the receptor compartment; JSS is the steady-state flux (μg·cm^−2·h^−1); t is the time (h), and LT is the lag time (h).
The steady-state flux was estimated from the slope of the linear portion of the plot of cumulative mass in the acceptor phase over time. The lag time (LT) was determined from the x-intercept of the linear portion of the plot of cumulative mass in the acceptor phase over time and was used to calculate the […] (KP) as follows: (2) KP=JSS/C where C is the concentration in the donor phase.

[5] = Skin accumulation after 24 h permeation; type: in vitro ADME; conditions: after 24-h penetration; HL-E application; porcine skin
Protocol: Following incubation, samples were homogenized (IKA®T18 digital ULTRA TURRAX, Germany) for 3 min and centrifuged at 3500 rpm for 5 min. The resulting supernatants were analyzed by HPLC spectrophotometry, with methanol used as a blank. Accumulated phenolic acids were expressed as amount (µg) per gram of skin tissue (µg·g skin^−1).

Compound | Phenolic acids concentration in the acceptor fluid (cumulative mass) ([4]; from hydrogel HL-E, 3 h) | Phenolic acids concentration in the acceptor fluid (cumulative mass) ([4]; from hydrogel HL-E, 5 h) | Phenolic acids concentration in the acceptor fluid (cumulative mass) ([4]; from hydrogel HL-E, 8 h) | Phenolic acids concentration in the acceptor fluid (cumulative mass) ([4]; from hydrogel HL-E, 24 h) | D·10^4, diffusion coefficient ([4]; from hydrogel HL-E) | JSS, steady-state flux ([4]; from hydrogel HL-E) | LT, lag time ([4]; from hydrogel HL-E) | Q%24h, percentage of applied dose in acceptor phase after 24 h ([4]; from hydrogel HL-E) | Phenolic acids concentration in the acceptor fluid (cumulative mass) ([4]; from hydrogel HS-E, 24 h) | Q%24h, percentage of applied dose in acceptor phase after 24 h ([4]; from hydrogel HS-E) | Phenolic acids concentration in the acceptor fluid (cumulative mass) ([4]; from hydrogel HS-E, 8 h) | also measured
O=C1O[C@H]([C@@H](O)CO)C(O)=C1O [Ascorbic acid, ascorbic acid] | – | – | – | – | – | – | – | – | – | – | – | ABTS radical scavenging IC50 [1]: 14.77 ± 0.5 µg/mL; Molybdenum reduction IC50 [2]: 78.25 ± 1.25 µg/mL
CC1(C)CC[C@]2(C(=O)O)CC[C@]3(C)C(=CC[C@@H]4[C@@]5(C)CC[C@H](O)C(C)(C)[C@@H]5CC[C@]43C)[C@@H]2C1 [oleanolic acid] | – | – | – | – | – | – | – | – | – | – | – | IC50 of collagenase inhibition [3]: 31.72 ± 0.65 µg/mL
COc1cc(C(=O)O)ccc1O [Vanillic acid, vanillic acid] | 0.49 ± 0.25^a µg/cm^2 | 1.76 ± 0.82^a µg/cm^2 | 3.92 ± 1.06^a µg/cm^2 | 15.61 ± 2.42^a µg/cm^2 | 2.68 ± 0.19 cm^2/h | 0.54 ± 0.03 µg/cm^2·h | 1.55 ± 0.13 h | 4.77 ± 0.29% | 0.95 ± 0.15^b µg/cm^2 | 3.28 ± 0.52% | – | Q%24h, percentage of applied dose in acceptor phase after 24 h ([4]; from hydrogel HL-E, listed as vanillic acid): 4.77%
O=C(O)c1cc(O)c(O)c(O)c1 [Gallic acid, gallic acid] | 6.18 ± 0.35^a µg/cm^2 | 10.24 ± 0.97^a µg/cm^2 | 16.09 ± 1.19^a µg/cm^2 | 49.62 ± 2.18^a µg/cm^2 | 25.73 ± 1.64 cm^2/h | 2.08 ± 0.08 µg/cm^2·h | 0.16 ± 0.02 h | 5.78 ± 0.25% | 7.19 ± 0.47^b µg/cm^2 | 4.78 ± 0.35% | 4.69 ± 0.19^b µg/cm^2 | Phenolic acids concentration in the acceptor fluid (cumulative mass) ([4]; from hydrogel HL-E, 1 h): 3.64 ± 0.12^a µg/cm^2; Phenolic acids concentration in the acceptor fluid (cumulative mass) ([4]; from hydrogel HL-E, 2 h): 4.54 ± 0.47^a µg/cm^2; Phenolic acids concentration in the acceptor fluid (cumulative mass) ([4]; from hydrogel HL-E, 24 h, listed as gallic acid): 49.62 ± 2.18 µg/cm^2; Q%24h, percentage of applied dose in acceptor phase after 24 h ([4]; from hydrogel HL-E, listed as gallic acid): 5.78%; Phenolic acids concentration in the acceptor fluid (cumulative mass) ([4]; from hydrogel HS-E, 5 h): 3.95 ± 0.18^b µg/cm^2; D·10^4, diffusion coefficient ([4]; from hydrogel HS-E): 2.01 ± 0.09 cm^2/h; JSS, steady-state flux ([4]; from hydrogel HS-E): 0.88 ± 0.04 µg/cm^2·h; LT, lag time ([4]; from hydrogel HS-E): 2.08 ± 0.09 h; Accumulation of phenolic acid in the skin [5]: 70.62 ± 4.06 µg/g skin
O=C(O)/C=C/c1ccc(O)cc1 [Coumaric acid, coumaric acid] | 4.97 ± 0.09^a µg/cm^2 | 7.04 ± 0.75^a µg/cm^2 | 8.95 ± 1.00^a µg/cm^2 | 12.45 ± 0.26^a µg/cm^2 | 9.27 ± 0.73 cm^2/h | 1.35 ± 0.17 µg/cm^2·h | – | 2.62 ± 0.05% | 5.93 ± 0.08^b µg/cm^2 | 5.37 ± 0.07% | 5.10 ± 0.11^b µg/cm^2 | –
O=C(O)c1ccc(O)c(O)c1 [Protocatechuic acid, protocatechuic acid] | 5.86 ± 0.28^a µg/cm^2 | 8.59 ± 0.65^a µg/cm^2 | 11.94 ± 1.91^a µg/cm^2 | 37.95 ± 2.96^a µg/cm^2 | 6.57 ± 0.77 cm^2/h | 2.10 ± 0.17 µg/cm^2·h | 0.63 ± 0.08 h | 4.49 ± 0.35% | 4.57 ± 0.30^b µg/cm^2 | 2.45 ± 0.16% | 3.84 ± 0.18^b µg/cm^2 | Phenolic acids concentration in the acceptor fluid (cumulative mass) ([4]; from hydrogel HL-E, 2 h): 3.28 ± 0.31^a µg/cm^2; Phenolic acids concentration in the acceptor fluid (cumulative mass) ([4]; from hydrogel HL-E, 24 h, listed as protocatechuic acid): 37.95 ± 2.96 µg/cm^2; Q%24h, percentage of applied dose in acceptor phase after 24 h ([4]; from hydrogel HL-E, listed as protocatechuic acid): 4.49%; Phenolic acids concentration in the acceptor fluid (cumulative mass) ([4]; from hydrogel HS-E, 5 h): 3.04 ± 0.03^a µg/cm^2; D·10^4, diffusion coefficient ([4]; from hydrogel HS-E): 1.91 ± 0.09 cm^2/h; JSS, steady-state flux ([4]; from hydrogel HS-E): 0.73 ± 0.04 µg/cm^2·h; LT, lag time ([4]; from hydrogel HS-E): 2.19 ± 0.10 h; Accumulation of phenolic acid in the skin [5]: 61.46 ± 12.57 µg/g skin
O=C(O)/C=C/c1ccc(O)c(O)c1 [Caffeic acid, caffeic acid] | 2.58 ± 0.20^a µg/cm^2 | 2.84 ± 0.07^a µg/cm^2 | 3.30 ± 0.13^a µg/cm^2 | 7.83 ± 0.83^a µg/cm^2 | 3.41 ± 0.28 cm^2/h | 0.84 ± 0.02 µg/cm^2·h | 1.22 ± 0.09 h | 0.68 ± 0.07% | not permeating at all | – | – | –
